Among the test systems are Escherichia coli BL21; Escherichia coli EC16; Candida albicans CA1; Escherichia coli EC18; Escherichia coli UTI89; Escherichia coli CFT073; Escherichia coli; Escherichia coli E44813.
Experiment in all cases: ≥ marks a high value that may be exact or a test limit, other limits are often not marked, values filed in µg/mL are converted to µM
Test [1] deals with Pseudomonas aeruginosa PAO1.
The test system of test [2] is Streptococcus pyogenes M1T1 5448.
Test [3] has as its system Pseudomonas aeruginosa Ps4.
The test system of test [4] is Staphylococcus aureus ATCC 43300.
The subject of test [5] is Salmonella enterica ATCC 6539.
The test system of test [6] is Klebsiella pneumoniae ATCC 700603.
The subject of test [7] is Enterococcus faecium ATCC 700221.
The test system of test [8] is Pseudomonas aeruginosa ATCC 27853.
Test [9] relates to Acinetobacter baumannii ATCC BAA-747.
The subject of test [10] is Escherichia coli ATCC 25922.
Test [11] relates to Candida krusei ATCC 40147.
Test [12] deals with Candida tropicalis ATCC 750.
Test [13] concerns Candida parapsilosis ATCC 90018.
Test [14] concerns Klebsiella pneumoniae KP1.
The test system of test [15] is Pseudomonas aeruginosa PA14.
Test [16] relates to Candida albicans ATCC 90029.
The subject of test [17] is Acinetobacter baumannii AB1.
For test [18], the system named is Staphylococcus aureus ATCC 25923.
In test [19] the test system is Salmonella typhimurium SL1344.
Test [20] concerns Listeria monocytogenes CICC 21533.
Test [21] deals with Staphylococcus epidermidis LY8.
The test system of test [22] is Pasteurella multocida C48-3.
For test [23], the system named is Bacillus subtilis CICC 24434.
For test [24], the system named is Salmonella enterica subsp. enterica serovar Choleraesuis C78-1.

MIC data for six compounds are collected here from DBAASP.

≈ marks a conversion by molar mass, not a printed value.

With `CC[C@H](C)[C@H](NC(=O)[C@H](Cc1c[nH]c2ccccc12)NC(=O)[C@H](C)NC(=O)[C@H](CCCN=C(N)N)NC(=O)[C@H](CCCCN)NC(=O)CNC(=O)[C@H](CCCCN)NC(=O)[C@H](CCC(=O)O)NC(=O)[C@H](CCC(N)=O)NC(=O)[C@@H](NC(=O)[C@H](CCCCN)NC(=O)[C@H](CCCCN)NC(=O)[C@H](CCCCN)NC(=O)[C@H](CC(C)C)NC(=O)[C@H](CCCN=C(N)N)NC(=O)[C@H](CCC(N)=O)NC(=O)[C@H](Cc1ccccc1)NC(=O)[C@@H](NC(=O)[C@@H](NC(=O)[C@H](CCC(=O)O)NC(=O)[C@H](CCCCN)NC(=O)CNC(=O)[C@H](C)N)[C@@H](C)O)[C@@H](C)CC)[C@@H](C)CC)C(=O)N[C@@H](C)C(=O)N[C@@H](Cc1c[nH]c2ccccc12)C(=O)O` [AGKETIFQRLKKKIQEKGKRAWIAW], the MIC in test [1] stood at 32 µM (≈ 96.5 µg/mL); in [2], 0.125 µM (≈ 0.377 µg/mL); in the test with Escherichia coli BL21, 0.0156 µM (≈ 0.047 µg/mL).

Turning to `CC[C@H](C)[C@H](NC(=O)[C@H](CC(N)=O)NC(=O)[C@H](CCCN=C(N)N)NC(=O)[C@H](CCC(N)=O)NC(=O)[C@H](Cc1c[nH]c2ccccc12)NC(=O)[C@@H](N)Cc1ccccc1)C(=O)N[C@@H](CCCN=C(N)N)C(=O)N[C@@H](CCCCN)C(=O)N[C@H](C(=O)N[C@@H](CCCN=C(N)N)C(N)=O)C(C)C` [FWQRNIRKVR], in [3], the MIC is at least 178 µM.

On to `NCCCC[C@H](NC(=O)CNC(=O)CNC(=O)[C@H](CCCN=C(N)N)NC(=O)[C@H](CS)NC(=O)[C@H](Cc1ccc(O)cc1)NC(=O)[C@H](Cc1c[nH]c2ccccc12)NC(=O)[C@H](CCCN=C(N)N)NC(=O)[C@H](Cc1c[nH]c2ccccc12)NC(=O)[C@H](Cc1cnc[nH]1)NC(=O)CNC(=O)CN)C(N)=O` [GGHWRWYCRGGK], for which the MIC amounted to 11 µM (≈ 16.1 µg/mL) in [4]; 1 µM (≈ 1.46 µg/mL) in test [5]; 11 µM (≈ 16.1 µg/mL) in test [6]; 3 µM (≈ 4.39 µg/mL) in [7]; 11 µM (≈ 16.1 µg/mL) in test [8]; 11 µM (≈ 16.1 µg/mL) in [9]. The compound also displayed an MIC in test [10] of 3 µM (≈ 4.39 µg/mL).

Take `CC[C@H](C)[C@H](NC(=O)CNC(=O)[C@H](C)NC(=O)[C@H](CCCCN)NC(=O)CNC(=O)[C@H](CCSC)NC(=O)[C@H](CCC(=O)O)NC(=O)[C@H](CCCCN)NC(=O)[C@@H](NC(=O)[C@@H](NC(=O)[C@H](CCCCN)NC(=O)[C@@H](NC(=O)[C@@H](NC(=O)[C@H](CCCCN)NC(=O)[C@H](CC(=O)O)NC(=O)[C@H](CCCCN)NC(=O)[C@H](Cc1cnc[nH]1)NC(=O)[C@H](CCCCN)NC(=O)[C@H](CC(N)=O)NC(=O)[C@H](Cc1c[nH]c2ccccc12)NC(=O)[C@H](Cc1c[nH]c2ccccc12)NC(=O)[C@H](CC(=O)O)NC(=O)[C@H](CCCCN)NC(=O)[C@H](CC(C)C)NC(=O)CN)[C@@H](C)CC)C(C)C)C(C)C)C(C)C)C(=O)N[C@@H](CC(N)=O)C(=O)N[C@@H](C)C(=O)N[C@@H](C)C(N)=O` [GLKDWWNKHKDKIVKVVKEMGKAGINAA]: the minimal inhibitory concentration (MIC) in test [11] stood at 2.5 µM (≈ 7.91 µg/mL); against Escherichia coli EC16 it was 5 µM (≈ 15.8 µg/mL); in [12], 10 µM (≈ 31.6 µg/mL); against Candida albicans CA1, 5 µM (≈ 15.8 µg/mL); in test [13], 10 µM (≈ 31.6 µg/mL); in test [14], 5 µM (≈ 15.8 µg/mL). Further, the MIC came to 10 µM (≈ 31.6 µg/mL) against Escherichia coli EC18, 5 µM (≈ 15.8 µg/mL) in test [15], 10 µM (≈ 31.6 µg/mL) in test [16] and 10 µM (≈ 31.6 µg/mL) in test [17].

Take `CC[C@H](C)[C@H](N)C(=O)N[C@@H](C)C(=O)N[C@@H](C)C(=O)N[C@@H](CCC(=O)O)C(=O)N[C@@H](CCCN=C(N)N)C(=O)N[C@@H](CCCN=C(N)N)C(=O)N[C@@H](Cc1ccc(O)cc1)C(=O)N[C@@H](C)C(=O)N[C@H](C(=O)N[C@H](C(=O)N[C@@H](Cc1ccc(O)cc1)C(=O)N[C@@H](CCC(N)=O)C(=O)N[C@@H](C)C(=O)N[C@@H](CCCN=C(N)N)C(=O)N[C@@H](CC(C)C)C(=O)N[C@@H](Cc1c[nH]c2ccccc12)C(=O)N[C@@H](C)C(=O)N[C@@H](Cc1ccccc1)C(=O)O)[C@@H](C)CC)[C@@H](C)O` [IAAERRYATIYQARLWAF]: the MIC is 56.8 µM (≈ 125 µg/mL) in test [1]; 56.8 µM (≈ 125 µg/mL) in test [8]; at least 56.8 µM with Escherichia coli UTI89; 56.8 µM (≈ 125 µg/mL) in [10]; at least 56.8 µM against Escherichia coli CFT073; 80.4 µM (≈ 177 µg/mL) against Escherichia coli.

Take `CC[C@H](C)[C@H](NC(=O)[C@@H](NC(=O)[C@@H](N)CCCN=C(N)N)[C@@H](C)CC)C(=O)N[C@@H](CC(=O)O)C(=O)N[C@@H](CCCN=C(N)N)C(=O)N[C@@H](CC(C)C)C(=O)N[C@@H](Cc1c[nH]c2ccccc12)C(=O)N[C@@H](CCCN=C(N)N)C(=O)N[C@H](C(=O)N[C@@H](CCCN=C(N)N)C(=O)N[C@@H](CCCN=C(N)N)C(=O)N1CCC[C@H]1C(=O)N[C@@H](CCC(N)=O)C(=O)N[C@@H](CCCCN)C(=O)N1CCC[C@H]1C(=O)N[C@@H](CCCCN)C(=O)N[C@@H](Cc1ccccc1)C(=O)N[C@H](C(=O)N[C@H](C(=O)N[C@H](C(=O)N[C@@H](Cc1c[nH]c2ccccc12)C(=O)N[C@H](C(=O)N[C@@H](CCCN=C(N)N)C(=O)O)C(C)C)C(C)C)[C@@H](C)O)C(C)C)C(C)C` [RIIDRLWRVRRPQKPKFVTVWVR]: the MIC in [18] is 0.0083 µM (≈ 0.0249 µg/mL); in [19] it was 0.519 µM (≈ 1.56 µg/mL); in [20] it was at least 41.6 µM; in test [21], 8.32 µM (≈ 25 µg/mL); in [22], 0.519 µM (≈ 1.56 µg/mL); in test [23], 0.519 µM (≈ 1.56 µg/mL). In addition, the MIC with Escherichia coli E44813 came out at 4.16 µM (≈ 12.5 µg/mL); in test [24], 0.26 µM (≈ 0.78 µg/mL).
